According to patent US20140357512A1, “HISTONE DEACETYLASE (HDAC) BIOMARKERS IN MULTIPLE MYELOMA” (priority 2013, published 2014):

Tested on: human myeloma cell line MM.1S
Experiment: SILAC acetylated-lysine peptide profiling, HDAC inhibitor vs DMSO (light/heavy ratio)
Assay type: cell-based
Text: An embodiment of the invention comprises utilizing the SILAC method in order to quantitate changes in protein expression between two or more populations of cells. The SILAC method is a technique based on mass spectrometry that detects differences in protein abundance among samples using non-radioactive isotopic labeling. The SILAC method is known in the art, and described in detail in Ong et al., “Stable Isotope Labeling by Amino Acids in Cell Culture, SILAC, as a Simple and Accurate Approach to Expression Proteomics”, Molecular & Cellular Proteomics, vol. 1, pp. 376-386 (2002), which is incorporated herein by reference in its entirety.
Briefly, the SILAC method involves growing two populations of cells in cell culture. The first population of cells is grown in growth media containing normal amino acids (“normal media”). The second population of cells is grown in media lacking a standard essential amino acid (such as lysine), but is then supplemented with a non-radioactive, isotopically labeled form of that essential amino acid (such as lysine labeled with ^13C atoms, rather than normal ^12C atoms), which is called “heavy media”. When the two populations of cells are each growing in the medium, they incorporate the amino acids into all of their proteins. The growth of cells maintained in the heavy media is no different from that in normal media. All peptides containing the heavy amino acids are heavier than their normal counterparts. The cells from each of the two populations of cells are lysed. The lysates from each of the two cell populations are then combined. The combined cell lysates are then analyzed by mass spectrometry. Pairs of chemically identical peptides of different stable isotope composition can be differentiated in a mass spectrometer due to their difference in mass. The ratio of peak intensities in the mass spectrum for such peptide pairs reflects the abundance ratio for the two proteins.
This example describes SILAC studies that were performed to compare the effects of three different HDAC inhibitors (Compound A, Compound B, and tubastatin A) to a control on a human multiple myeloma cell line. The HDAC inhibitors were also compared amongst themselves to determine differences in their effects.
A human myeloma cell line MM.1S was grown using either ^12C (light) or ^13C (heavy) lysine containing culture medium. The “heavy” cells were treated with DMSO as the control, and the “light” cells were treated with a single HDAC inhibitor at 37° C. for 6 hours. The heavy and light cells were lysed, and the lysates were mixed in 1:1 ratio and digested with the protease trypsin. The acetylated lysine containing peptides (due to the action of the HDAC inhibitor) in the digested peptide pool were captured by a non-specific anti-acetylated lysine antibody cocktail (the antibodies identify both light and heavy acetylated peptides), and subjected to mass spectrometry analysis in order to identify thousands of individual peptides.
Thousands of peptides were identified in pairs (^12C and ^13C) due to their known mass differences. The amino acid sequence and quantitative ratio (Light/Heavy) of a given peptide in two differentially treated cell lysates were then determined and annotated with their possible protein (gene) sources.
As stated above, three HDAC inhibitors (Compound A, Compound B, and Tubastatin A) were used. Thus, the SILAC method was performed three times, with a different HDAC inhibitor compared to a control each time. Accordingly, there are three pairs of quantitative data in the table below, i.e., Compound A:DMSO, Compound B:DMSO, and Tubastatin A:DMSO. A cut-off of 1.30 fold of change (increase or decrease) was then used to determine “changed” or “+” in the table, and any peptides with a fold of change less than 1.3 fold were determined to be “unchanged” or “0” in the table. Those peptides that were not identified were marked as “NA” in the table. […]

`O=C(NO)c1cnc(NC2(c3cccc(F)c3)CCCCC2)nc1` [Compound B, 2-((1-(3-fluorophenyl)cyclohexyl)amino)-N-hydroxypyrimidine-5-carboxamide] was tested, and the “light to heavy ratio (L/H ratio) of acetylated peptide TNFSNEK(ac)TISK (SEQ ID NO: 357)” value (Acylphosphatase-2 [113], ACYP2, drug:DMSO) was 0.84 log 2, the “light to heavy ratio (L/H ratio), log 2 scale, acetylated peptide SELTGK(ac)FEK (SEQ ID NO: 778)” value (Annexin A5 [76], gene ANXA5, drug:DMSO) was 0.00 and the “light to heavy ratio (L/H ratio) of acetylated peptide TKYEK(ac)SLYSMIK (SEQ ID NO: 270)” value (Annexin A6 [299], ANXA6, drug:DMSO) was 0.00 log 2. For the same molecule, the “light to heavy ratio (L/H ratio) of acetylated peptide AINEAYK(ac)EDYHK (SEQ ID NO: 282)” value (Annexin A6 [478], ANXA6, drug:DMSO) was 0.00 log 2, the “light to heavy ratio (L/H ratio) of acetylated peptide NKPLFFADK(ac)LYK (SEQ ID NO: 298)” value (Annexin A6 [607], ANXA6, drug:DMSO) was 0.00 log 2 and the “light to heavy ratio (L/H ratio) of acetylated peptide GAGTDEK(ac)TLTR (SEQ ID NO: 621)” value (Annexin A6 [620], gene ANXA6, inhibitor:DMSO) was 0.00 log 2. For the same molecule, the “light to heavy ratio (L/H ratio), log 2 scale, acetylated peptide EFIEK(ac)YDK (SEQ ID NO: 779)” value (Annexin A6 [644], gene ANXA6, drug:DMSO) was 0.00, the “light to heavy ratio (L/H ratio) of acetylated peptide DDNGK(ac)PYVLPSVR (SEQ ID NO: 579)” value (Aspartate aminotransferase mitochondrial [73], gene GOT2, inhibitor:DMSO) was 0.00 log 2 and the “light to heavy ratio (L/H ratio) of acetylated peptide LVGELK(ac)LDR (SEQ ID NO: 367)” value (Bactericidal/permeability-increasing protein [237], BPI, drug:DMSO) was −0.52 log 2. For the same molecule, the “light to heavy ratio (L/H ratio) of acetylated peptide ELK(ac)EIQYGIR (SEQ ID NO: 540)” value (Branched-chain-amino-acid aminotransferase [337], gene BCAT2, inhibitor:DMSO) was 0.00 log 2, the “L/H ratio of acetylated peptide FYGDEEK(ac)[…] (SEQ ID NO: 25)” value (CALR [62], log 2 scale, drug vs DMSO) was 0.00 and the “light to heavy ratio (L/H ratio) of acetylated peptide AGLQVYNK(ac)CWK (SEQ ID NO: 260)” value (CD59 glycoprotein [63], CD59, drug:DMSO) was 0.00 log 2. For the same molecule, the “L/H ratio of acetylated peptide” value (CHAFEK(ac)[…] (SEQ ID NO: 425), NADH dehydrogenase [ubiquinone] iron-sulfur protein 5 [38], NDUFS5) was −0.63 log 2, the “L/H ratio of acetylated peptide […](ac)R (SEQ ID NO: 26)” value (CLTC [637], log 2 scale, drug vs DMSO) was 0.00 and the “L/H ratio of acetylated peptide FK(ac)ESFAEMNR (SEQ ID NO: 1)” value (COX4I1 [87], log 2 scale, drug vs DMSO) was −0.67. For the same molecule, the “L/H ratio of acetylated peptide […](ac)QLCTIPR (SEQ ID NO: 27)” value (CREBBP [1216], log 2 scale, drug vs DMSO) was 0.00, the “L/H ratio of acetylated peptide TNK(ac)NK(ac)SSISR (SEQ ID NO: 13)” value (CREBBP [1595:1597], log 2 scale, drug vs DMSO) was 0.62 and the “L/H ratio of acetylated peptide ALK(ac)DLYCHK (SEQ ID NO: 28)” value (CREM [240], log 2 scale, drug vs DMSO) was 0.00. For the same molecule, the “L/H ratio of acetylated peptide LYCPK(ac)CMDVYTPK (SEQ ID NO: 29)” value (CSNK2B [139], log 2 scale, drug vs DMSO) was 0.00, the “light to heavy ratio (L/H ratio) of acetylated peptide NSFDCFK(ac)K (SEQ ID NO: 605)” value (Calcium-binding mitochondrial carrier protein Aralar2 [379], gene SLC25A13, inhibitor:DMSO) was 0.00 log 2 and the “light to heavy ratio (L/H ratio) of acetylated peptide FVLSSGK(ac)FYGDEEKDK (SEQ ID NO: 281)” value (Calreticulin [55], CALR, drug:DMSO) was 0.00 log 2. For the same molecule, the “light to heavy ratio (L/H ratio) of acetylated peptide NVLINK(ac)DIR (SEQ ID NO: 257)” value (Calreticulin [159], CALR, drug:DMSO) was 0.00 log 2, the “light to heavy ratio (L/H ratio) of acetylated peptide […](ac)GLLK (SEQ ID NO: 569)” value (Chloride intracellular channel protein 1 [131], gene CLIC1, inhibitor:DMSO) was 0.00 log 2 and the “light to heavy ratio (L/H ratio) of acetylated peptide SMSTEGLMK(ac)FVDSK (SEQ ID NO: 330)” value (Citrate synthase mitochondrial [459], CS, drug:DMSO) was 0.76 log 2. The “light to heavy ratio (L/H ratio), log 2 scale, acetylated peptide MIYASSK(ac)DAIKK (SEQ ID NO: 763)” value (Cofilin-1 [121], gene CFL1, drug:DMSO) was 0.00, the “light to heavy ratio (L/H ratio) of acetylated peptide AAEEVEAK(ac)FK (SEQ ID NO: 328)” value (Coiled-coil-helix-coiled-coil-helix domain-containing protein 3 mitochondrial [173], CHCHD3, drug:DMSO) was −0.42 log 2 and the “light to heavy ratio (L/H ratio) of acetylated peptide ASEIGEK(ac)YR (SEQ ID NO: 586)” value (Conserved hypothetical protein [484], gene KIAA0947, inhibitor:DMSO) was 0.00 log 2. For the same molecule, the “light to heavy ratio (L/H ratio) of acetylated peptide DHCVAHK(ac)LFNNLK (SEQ ID NO: 608)” value (Cytochrome b-c1 complex subunit 6 mitochondrial [85], gene UQCRH, inhibitor:DMSO) was 0.00 log 2, the “light to heavy ratio (L/H ratio) of acetylated peptide YFDEK(ac)IAK (SEQ ID NO: 563)” value (D-beta-hydroxybutyrate dehydrogenase mitochondrial [280], gene BDH1, inhibitor:DMSO) was 0.00 log 2 and the “L/H ratio of acetylated peptide FK(ac)[…] (SEQ ID NO: 30)” value (DAZAP1 [59], log 2 scale, drug vs DMSO) was 0.00. The “L/H ratio of acetylated peptide APTIVGK(ac)SSLNPILFR (SEQ ID NO: 31)” value (DDOST [189], log 2 scale, drug vs DMSO) was 0.00 and the “L/H ratio of acetylated peptide DWVLNEFK(ac)HGK (SEQ ID NO: 33)” value (DDX5 [388], log 2 scale, drug vs DMSO) was 0.00.
